Tested on: EAE induced in the CSJL/FI strain of mice
Experiment: EAE model in CSJL/FI mice (MSCH/CFA-induced), clinical scoring
Assay type: in vivo
Method: EAE induced in the CSJL/FI strain of mice was selected to test the compounds mentioned above, as it is an established EAE model to test the efficacy of candidate molecules for MS treatment.
Disease was induced in all mice by the injection of the encephalitogenic emulsion (MSCH/CFA). Treatment was started from day 1 of the study or at disease onset and was administered every day, orally (BID), from onset of the study.
Healthy, nulliparous, non-pregnant female mice of the CSJL/FI strain obtained from Harlan Animal Breeding Center, Jerusalem, Israel were used in the study. The animals weighed about 17-20 g on arrival, and were approximately 9 weeks of age at initiation of the study. Overtly healthy animals were assigned to study groups arbitrarily before treatment commenced.
The mice were allocated to the following 8 groups of 10 mice each:
Treatments in all groups were administered orally.
The emulsion was made from equal parts of oil (4 mL CFA containing 1.0 mg/ml MT) and liquid portions ([…] MSCH/2.5 mL PBS) in two syringes connected to each other with a Leur lock. The concentration of MSCH in emulsion is 40 mg/mL.
The emulsion was transferred to an insulin syringe before injection. 0.05 ml was injected into the left foot-pad of each mouse.
104 μL Pertussis toxin (200 μg/ml) was added to 25.87 ml PBS to yield 800 ng/ml. The pertussis toxin was administered intravenously on the day of the encephalitogen injection and 48 hours later (160.0 ng/0.2 ml/mouse×2=320 ng/mouse).
Laquinimod was diluted in DDW water to yield 0.1 mg/ml. The solution was stored in an amber colored bottle at 2 to 8° C. The 0.1 mg/ml laquinimod was administered orally, once, daily from the initiation of the study until study termination (Day 23).
Compounds B and C were dissolved in 5% Dextrose to concentrations of 2.5, 5.0 and 10 mg/ml for dose levels of 25, 50 and 100 mg/kg respectively. Test samples were freshly prepared. The 2.5, 5.0 and 10 mg/ml concentrations of Compounds B and C were administered orally, twice daily (BID) from initiation of study until study termination (Day 23) to groups
Scoring of EAE clinical signs were initiated from the 10th day post-EAE induction and were continued daily. The clinical signs were recorded on observation cards according to a grading system described in the table below.
All mice having scores of 1 and above were considered sick.
Animals with a score of 4 for more than two days were given a score of 5 and sacrificed for humane reasons. For calculation purposes, the score (5) of animals that are sacrificed or died will be carried forward (LOCF).
The number of sick animals in each group was summed.
The incidence of disease was calculated as
The percent inhibition according to incidence was calculated as: […]
The number of dead or moribund animals in each group was summed.
The mortality of disease was calculated as
The percent inhibition according to mortality was calculated as
The mean delay in onset of disease expressed in days is calculated by subtracting the mean onset of disease in control group from test group.
The mean maximal score (MMS) of each group was calculated as
The percent inhibition according to MMS was calculated as
The daily scores of each mouse in the test group was summed and the individual mean daily score (IMS) was calculated as
The mean group score (GMS) was calculated as
The percent inhibition was calculated as
This example was performed in the same manner as example 3 with the following groups:
Compound A was prepared for administration by mixing in 0.5% methyl cellulose (0.5% MC) to concentrations of 2.5, 5.0 and 10 mg/ml for dose levels of 25, 50 and 100 mg/kg respectively. The samples were vortexed and sonicated until a clear solution was obtained.
The 2.5, 5.0 and 10 mg/ml concentrations of Compound A were administered orally, twice daily (BID) from initiation of study until study termination (Day 23) at a volume dose of 0.2 ml/mouse.
Compound B was prepared for administration as in Example 3. […]

[1] = Example 3, all dose levels (25, 50, 100 mg/kg BID oral) in 5% dextrose
[2] = Example 3, 1 mg/kg QD oral, Day 0 to 22, percent inhibition vs 5% dextrose negative control

C#CCN1CCN(c2nc3ccc(OC(F)(F)F)cc3s2)CC1 [Compound A, 2-(4-(prop-2-ynyl)piperazin-1-yl)-6-(trifluoromethoxy)benzo[d]thiazole]
protection from disease onset and severity (in words) (Example 4, 25, 50 and 100 mg/kg BID oral in 0.5% methyl cellulose, all doses tested): almost complete protection
efficacy compared with Compound B (Example 4, Compound A 25-100 mg/kg BID vs Compound B 15-25 mg/kg BID, oral): better than Compound B

C#CCNCc1nc2ccc(OC(F)(F)F)cc2s1 [Compound B, N-((6-(trifluoromethoxy)benzo[d]thiazol-2-yl)methyl)prop-2-yn-1-amine]
mortality (Example 3, 25 mg/kg BID oral): no mortality
activity based on GMS (EAE inhibition) (Example 3, 25 mg/kg BID oral in 5% dextrose, Day 0 to 22): 55.9%
activity based on GMS (EAE inhibition) (Example 3, 100 mg/kg BID oral in 5% dextrose, Day 0 to 22): 56.4%
activity in EAE (in words) [1]: some activity
activity in EAE (in words) (Example 4, 15 and 25 mg/kg BID oral, Day 0 to 22): moderate activity

C#CCN(C)Cc1nc2ccc(OC(F)(F)F)cc2s1 [Compound C, N-methyl-N-((6-(trifluoromethoxy)benzo[d]thiazol-2-yl)methyl)prop-2-yn-1-amine]
activity in EAE (in words) [1]: some activity

CCN(C(=O)c1c(O)c2c(Cl)cccc2n(C)c1=O)c1ccccc1 [laquinimod, reference compound]
activity according to GMS (group mean score) [2]: 96.7%
activity according to MMS (mean maximal score) [2]: 93.5%
activity according to incidence [2]: 80%

Source: patent publication US8759382B2, “Propargyl-trifluoromethoxy-aminobenzothiazole derivatives, their preparation and use” (Teva Pharmaceutical Industries Ltd., priority 2010, dated 2014)
